Test results: PubChem BioAssay AID1159536 (DiRusso Lab, Biochemistry Department, University of Nebraska, 2015)
Records with an inconclusive call do not appear. Activity calls are given as the source filed them. How the calls were made is not given here.

These compounds were tested on Chlamydomonas reinhardtii, Nile Red lipid fluorescence, 72 h (assay: algal triacylglycerol accumulation inducers, dose response, qHTS, Chlamydomonas reinhardtii (AID 1159536)).
For `CC(C)c1ccc(CN2CCN(C)CC2)cc1`, the EC50 was 3.5 µM.
`COc1ccc(CN2CCN(Cc3ccccc3)CC2)c(OC)c1OC` was tested, and the EC50 was 11.6 µM.
`C1=CC2CC1CC2CN1CCN(Cc2ccccc2)CC1` (stereo not drawn) was tested, and the EC50 was 6.19 µM.
In the case of `CCOc1c(Cl)cc(C(=O)Nc2cccc([N+](=O)[O-])c2)cc1Cl`, the EC50 is reported as 13.4 µM (inactive).
Compound `CCN1CCN(C2CCC(c3ccccc3)CC2)CC1` (stereo not drawn) has an EC50 of 1.77 µM.
In the case of `CCCCOc1ccc(CN2CCN(c3ccc([N+](=O)[O-])cc3)CC2)cc1`, the EC50 is reported as 2.7 µM.
`COc1cccc(NC2=C(N(C)C)C(=O)c3ccccc3C2=O)c1` was tested, and the EC50 was 1.87 µM (inactive).
`COc1cc(Cl)c(S(=O)(=O)NCCCN2CCOCC2)cc1Cl` was tested, and the EC50 was 3.61 µM.
`CCN1CCN(C(=O)c2ccc(C(C)(C)C)cc2)CC1` showed an EC50 of 1.4 µM.
Work on `COc1ccc(OCCCN2CCCCC2)cc1` yielded an EC50 of 13.8 µM.
`CC(C)(Oc1ccc(Cl)cc1)C(=O)Nc1ccc(Br)cc1F` was tested, and the EC50 was 1.81 µM (inactive).
With `Fc1ccc(CN2CCN(c3cccc(Cl)c3)CC2)cc1` the EC50 was 1.29 µM.
In the case of `CN1CCCN(Cc2ccc([N+](=O)[O-])o2)CC1`, the EC50 is reported as 15 µM (inactive).
`CN1CCC(N(C)Cc2cc(Cl)ccc2O)CC1` showed an EC50 of 2.56 µM.
With `Cc1cc(C)c(NC(=O)COc2ccccc2[N+](=O)[O-])c(C)c1` the EC50 was 3.13 µM (inactive).
With `Cc1cc(C)c(S(=O)(=O)NCCCN2CCOCC2)cc1Br` the EC50 was 0.769 µM.
With `O=C1C2C3CCC(C3)C2C(=O)N1c1nccs1` (stereo not drawn) the EC50 was 13.5 µM (inactive).
`CN(CC(O)COc1ccc(Br)cc1)C1CCCCC1` (stereo not drawn) showed an EC50 of 6.83 µM.
Compound `O=C(c1ccc(CN2CCc3ccccc3C2)cc1)N1CCN(c2ccccc2F)CC1` has an EC50 of 6.04 µM.
`C(#CCN1CCCCC1)COc1ccccc1` gave an EC50 of 4.84 µM.
With `C(#CC12CC3CC(CC(C3)C1)C2)CN1CCOCC1` the EC50 was 3.27 µM.
`Clc1cc(Br)ccc1OCCCN1CCOCC1` gave an EC50 of 4.43 µM.
`Cc1cc(I)ccc1S(=O)(=O)NCCCN1CCOCC1` was tested, and the EC50 was 1.28 µM.
In the case of `OC(COc1ccc(Br)cc1)CN1CCCCCC1` (stereo not drawn), the EC50 is reported as 10.6 µM (inactive).
For `c1coc(CN2CCN(C3CCCCCC3)CC2)c1`, the EC50 was 4.76 µM.
In the case of `OC(CNCCc1ccccc1)c1ccccc1` (stereo not drawn), the EC50 is reported as 6.91 µM.
For `Cn1c(SCC(=O)NCc2ccccc2)nnc1-c1ccc(C(C)(C)C)cc1`, the EC50 was 7.31 µM (inactive).
In the case of `CN1CCN(C2C3CC4CC(C3)CC2C4)CC1` (stereo not drawn), the EC50 is reported as 9.7 µM.
Work on `O=C(Nc1ccccc1C(=O)Nc1ccccc1Cl)c1ccncc1` yielded an EC50 of 9.55 µM.
With `Cc1cc(Br)ccc1OCCCCN1CCCC1` the EC50 was 2.71 µM.
With `O=C(O)C1CC=CCC1C(=O)Nc1ccc(F)cc1F` (stereo not drawn) the EC50 was 13.2 µM (inactive).
For `Cc1ccc(OCCCN2CCOCC2)c(C)c1`, the EC50 was 10.3 µM.
With `CCCCNc1cc(C)nc(N2CCOCC2)n1` the EC50 was 13.1 µM.
In the case of `Cc1ccc(C)c(N2CCN(Cc3ccc([N+](=O)[O-])cc3)CC2)c1`, the EC50 is reported as 1.29 µM.
In the case of `Cc1ccc(OCCOCCN2CCOCC2)c([N+](=O)[O-])c1`, the EC50 is reported as 2.7 µM.
`Clc1cccc(N2CCN(Cc3ccsc3)CC2)c1` gave an EC50 of 3.96 µM.
With `C=C(C)CN(CC)C(=O)C1CCN(Cc2ccc(Cl)cc2)CC1` the EC50 was 0.642 µM.
`Cc1ccccc1OCCCCN1CCOCC1` was tested, and the EC50 was 9.79 µM.
`Oc1ccc(CN2CCN(c3ccccc3Cl)CC2)cc1` was tested, and the EC50 was 0.632 µM.
`O=[N+]([O-])c1ccc(CNC2CCCC2)cc1` was tested, and the EC50 was 0.645 µM.
In the case of `Cc1ccc(S(=O)(=O)n2cccn2)cc1`, the EC50 is reported as 12.9 µM (inactive).
`O=C(c1ccccc1)c1ccc(OCCCCn2ccnc2)cc1` was tested, and the EC50 was 1.33 µM (inactive).
`CCN1CCN(Cc2ccc(N(CC)CC)cc2)CC1` gave an EC50 of 0.498 µM.
In the case of `CCOc1ccc(C2=CSC3=NCCN23)cc1`, the EC50 is reported as 13.7 µM (inactive).
`O=C(Nc1ccc([N+](=O)[O-])cc1)c1cccc(Cl)c1Cl` was tested, and the EC50 was 2.35 µM (inactive).
`NC(=O)c1cc(-c2ccccc2)sc1NC(=O)c1ccc(OC(F)F)cc1` gave an EC50 of 0.155 µM.
For `Cc1cccc(N2CCN(C(=O)C3CCN(CC4CCCCC4)CC3)CC2)c1C`, the EC50 was 4.62 µM.
In the case of `COc1ccccc1N1CCN(Cc2ccc(Cl)cc2)CC1`, the EC50 is reported as 1.61 µM.
`Clc1cc(Br)ccc1OCCCCN1CCOCC1` showed an EC50 of 1.31 µM.
For `COc1ccc(C(=O)Nc2sc3c(c2C(N)=O)CCC(C)C3)c(OC)c1` (stereo not drawn), the EC50 was 15.8 µM (inactive).
`COc1ccccc1N1CCN(Cc2ccc(C)cc2)CC1` gave an EC50 of 3.65 µM.
`Cc1c(NC(=O)c2c(F)c(F)c(F)c(F)c2F)c(=O)n(-c2ccccc2)n1C` was tested, and the EC50 was 19 µM (inactive).
With `CC(C)NC(=O)c1ccccc1NC(=O)c1ccc(Br)cc1` the EC50 was 1.01 µM.
In the case of `CCC(C)c1ccccc1OCCCCN1CCCC1` (stereo not drawn), the EC50 is reported as 2.68 µM.
For `Cc1cc(C(C)(C)C)ccc1OCCOCCN1CCN(C)CC1`, the EC50 was 0.566 µM (inactive).
`CCN(CC)CC#Cc1ccc(C#CCN(CC)CC)cc1` gave an EC50 of 4.15 µM.
`CC1CCCC(N2CCN(Cc3ccccc3)CC2)C1` (stereo not drawn) showed an EC50 of 0.811 µM.
`Brc1ccc2ncnc(N3CCN(Cc4ccccc4)CC3)c2c1` gave an EC50 of 2.02 µM.
For `O=[N+]([O-])c1ccc(CN2CCN(c3ccccc3)CC2)cc1`, the EC50 was 0.175 µM.
Work on `Clc1ccc(OCCCN2CCOCC2)c(Br)c1` yielded an EC50 of 10.5 µM.
`Clc1ccc(Cl)c(OCCCCN2CCNCC2)c1` showed an EC50 of 5.34 µM.
Work on `CCC(C)c1ccc(OCCN2CCCC2)cc1` (stereo not drawn) yielded an EC50 of 5.17 µM.
`OCCN1CCN(C2C3CC4CC(C3)CC2C4)CC1` (stereo not drawn) gave an EC50 of 4.25 µM.
